Test results from article PMC11161644, “An effective and rapidly degradable disinfectant from disinfection byproducts” (Nature Communications, 2024).
Several values for one entry are separate records, joined by “and”; a condition that tells them apart may be missing. Equal values may be shown once. Read-outs that look alike come from different tables or passages of the source.

What was measured:
P. dumerilii embryos = assay: Developmental toxicity assay with P. dumerilii embryos, dilution factor of in-use concentration (EC50,DF), also after degradation in darkness; assay type: in vivo, Platynereis dumerilii; conditions: for Normal development: PCMX
Description: The DBP doses for 3-log E. coli reduction (pH 7.2) were set as the in-use concentrations, which were serially diluted and added to the P. dumerilii embryos at 12-h postfertilization. A dilution factor was defined as the ratio of the in-use concentration to the exposure concentration. Each exposure set contained a control sample (i.e., the embryos at 12-h postfertilization developed in seawater without the addition of DBPs). By 24-h postfertilization, normally developed embryos should have reached the first larval stage. An inverted stereomicroscope (×40 magnification) was used to observe the larvae. The normal development percentage was calculated as the ratio of normally developed embryos to total embryos. By plotting the curve of the normal development percentage versus the dilution factor, the EC50,DF value (i.e., the dilution factor corresponding to 50% of the normal development percentage of the control sample) was obtained using SigmaPlot 12. The developmental toxicity test was conducted in duplicate.

C. albicans (ATCC 14053) = assay: Inactivation of C. albicans (contact time 5 min); assay type: cell-based, Candida albicans; conditions: for log reduction at 300 µg/mL: Candida albicans, ATCC14053, 5 min, dose 300 mg L-1, pH 7.2, contact time 5 min
Protocol: The chemicals and reagents used are detailed in Supplementary Note 1. The bacteria E. coli (ATCC 25922) and S. aureus (ATCC 25923) were cultured aerobically in Luria-Bertani broth (Sigma-Aldrich) and Tryptone Soya broth (Oxoid), respectively, at 37 °C for 16 h. The fungus C. albicans (ATCC 14053) was aerobically cultured in Sabouraud Dextrose broth (Difco) at 37 °C for 24 h. The microorganism cells were harvested by centrifugation at 1200×g (10 min, 4 °C) and resuspended in phosphate-buffered saline (PBS, 10 mM, pH 7.2). The disinfection experiments were performed in PBS solutions (10 mM, pH 7.2) with an initial concentration of E. coli, S. aureus, or C. albicans of 10^6‒10^7 cells per milliliter. A contact time of 5 min was used in accordance with the recommended time range of 0.25–10 min by USEPA for surface disinfection. Preliminary tests were conducted to determine the appropriate range of DBP doses. The appropriate dose range was established when the lowest and highest doses could achieve <1-log and >3-log of microbial inactivation, respectively. Based on the preliminary results, a series of doses of DBPs were added to the cell suspensions at room temperature (22 ± 1 °C). After the contact time of 5 min, the microorganism cells were enumerated following a membrane filter method. Briefly, serial 10-fold dilutions were conducted for the disinfected samples and the control sample without disinfection. Each diluted suspension was subjected to filtration through 0.45-μm membrane, which was then placed on a petri dish. The Petri dishes containing E. coli, S. aureus, and C. albicans were incubated in m-FC medium (Becton Dickinson & Co) at 45 °C for 24 h, in Tryptone Soya broth at 37 °C for 24 h and in Sabouraud Dextrose broth at 37 °C for 24 h, respectively. After incubation, the colony-forming units within a statistically reasonable range (20–80) were counted.

[1] = test system: bacteriophage MS2 (ATCC 15597-B1); assay: Inactivation of bacteriophage MS2 (double-layer agar, contact time 5 min); assay type: cell-based; conditions: for log reduction at 300 µg/mL: Escherichia phage MS2, ATCC15597, 5 min, dose 300 mg L-1, pH 7.2, contact time 5 min
Protocol: The bacteriophage MS2 (ATCC 15597-B1) was propagated in the host E. coli (ATCC 15597) in Tryptone Soya broth at 37 °C for 16 h. The viruses were separated from the bacterial debris and purified by centrifuging the phage culture (4000×g, 10 min, 4 °C) and filtering the lysate with a 0.2 μm polyethersulfone sterile filter. The filtrate was then diluted in PBS (10 mM, pH 7.2) to an initial MS2 concentration of 10^9‒10^10 plaque-forming units […]. To initiate the disinfection experiments, a series of DBP doses were added to the MS2 suspension at room temperature (22 ± 1 °C). […] Briefly, serial 10-fold dilutions were conducted for the disinfected samples and the control sample without disinfection. Each dilution was mixed with the host E. coli in the soft agar and the mixture was immediately spread onto a Petri dish with Tryptone Soya agar. After the Petri dishes were incubated at 37 °C for 16 h, the plaque-forming units were counted. The disinfection experiments were performed in duplicate. All the materials for the disinfection experiments were autoclaved before use.

Cc1cc(O)cc(C)c1Cl [PCMX, para-chloro-meta-xylenol, reference compound]
Normal development (P. dumerilii embryos; degradation 0 h, dilution factor 6.7143): 0%
Normal development (P. dumerilii embryos; degradation 0 h, dilution factor 7.2308): 4.232% and 2.756%
Normal development (P. dumerilii embryos; degradation 0 h, dilution factor 7.6735): 25.4292% and 17.7492%
Normal development (P. dumerilii embryos; degradation 0 h, dilution factor 8.1739): 29.4152% and 29.5272%
Normal development (P. dumerilii embryos; degradation 0 h, dilution factor 8.7442): 46.2529% and 46.0367%
Normal development (P. dumerilii embryos; degradation 0 h, dilution factor 9.4): 56.894% and 62.197%
Normal development (P. dumerilii embryos; degradation 0 h, dilution factor 10.4444): 76.1488% and 70.708%
Normal development (P. dumerilii embryos; degradation 0 h, dilution factor 11.75): 84.2318% and 84.1758%
Normal development (P. dumerilii embryos; degradation 48 h, dilution factor 6.7143): 0%
Normal development (P. dumerilii embryos; degradation 48 h, dilution factor 7.2308): 0%
Normal development (P. dumerilii embryos; degradation 48 h, dilution factor 7.6735): 5.72% and 1.379%
Normal development (P. dumerilii embryos; degradation 48 h, dilution factor 8.1739): 20.3803% and 14.4749%
Normal development (P. dumerilii embryos; degradation 48 h, dilution factor 8.7442): 43.6056% and 44.3682%
Normal development (P. dumerilii embryos; degradation 48 h, dilution factor 9.4): 43.7739% and 49.5131%
Normal development (P. dumerilii embryos; degradation 48 h, dilution factor 10.4444): 54.207% and 47.1234%
Normal development (P. dumerilii embryos; degradation 48 h, dilution factor 11.75): 73.3565% and 68.3577%
Normal development (%) (P. dumerilii embryos; dilution factor 6.7143 of in-use concentration): 0%
Normal development (%) (P. dumerilii embryos; dilution factor 7.2308): 4.232% and 2.756%
Normal development (%) (P. dumerilii embryos; dilution factor 7.6735): 25.4292% and 17.7492%
Normal development (%) (P. dumerilii embryos; dilution factor 8.1739): 29.4152% and 29.5272%
Normal development (%) (P. dumerilii embryos; dilution factor 8.7442): 46.0367% and 46.2529%
Normal development (%) (P. dumerilii embryos; dilution factor 9.4): 62.197% and 56.894%
Normal development (%) (P. dumerilii embryos; dilution factor 10.4444): 76.1488% and 70.708%
Normal development (%) (P. dumerilii embryos; dilution factor 11.75): 84.2038%
log reduction at 300 µg/mL (C. albicans (ATCC 14053); pH 7.2, C. albicans, read-out: Log (N/N0)): 3.49
C. albicans inactivation rate constant k (C. albicans (ATCC 14053); pH 7.2, contact time 5 min): 3670 µL/min/mg
Dose for achieving 3-log inactivation of C. albicans (C. albicans (ATCC 14053); pH 7.2, contact time 5 min): 320 mg L−1
log reduction at 300 µg/mL ([1]; pH 7.2, MS2, read-out: Log (N/N0)): 1.03
Dose for achieving 3-log inactivation of MS2 ([1]; pH 7.2, contact time 5 min): 1010 mg L−1
MS2 inactivation rate constant k ([1]; pH 7.2, contact time 5 min): 600 µL/min/mg

Oc1ccc(Cl)cc1Cl [2,4-DCPh, 2,4-Dichlorophenol]
Normal development (%) (P. dumerilii embryos; dilution factor 9.6524): 0%
Normal development (%) (P. dumerilii embryos; dilution factor 13.1623): 7.691% and 7.509%
Normal development (%) (P. dumerilii embryos; dilution factor 16.0873): 35.5728% and 39.4272%
Normal development (%) (P. dumerilii embryos; dilution factor 20.6836): 55.5625% and 48.4375%
Normal development (%) (P. dumerilii embryos; dilution factor 28.9571): 80.2893% and 76.7107%
Normal development (%) (P. dumerilii embryos; dilution factor 57.9141): 81.6957% and 84.3043%
log reduction at 300 µg/mL (C. albicans (ATCC 14053); pH 7.2, read-out: Log (N/N0), C. albicans): 0.236
log reduction at 300 µg/mL ([1]; pH 7.2, read-out: Log (N/N0), MS2): 0.549
